Bounds are passed on as bounds.

The test deals with T1, AhR (Homo sapiens, UniProt P35869).
T1 sequence (P35869 11-848): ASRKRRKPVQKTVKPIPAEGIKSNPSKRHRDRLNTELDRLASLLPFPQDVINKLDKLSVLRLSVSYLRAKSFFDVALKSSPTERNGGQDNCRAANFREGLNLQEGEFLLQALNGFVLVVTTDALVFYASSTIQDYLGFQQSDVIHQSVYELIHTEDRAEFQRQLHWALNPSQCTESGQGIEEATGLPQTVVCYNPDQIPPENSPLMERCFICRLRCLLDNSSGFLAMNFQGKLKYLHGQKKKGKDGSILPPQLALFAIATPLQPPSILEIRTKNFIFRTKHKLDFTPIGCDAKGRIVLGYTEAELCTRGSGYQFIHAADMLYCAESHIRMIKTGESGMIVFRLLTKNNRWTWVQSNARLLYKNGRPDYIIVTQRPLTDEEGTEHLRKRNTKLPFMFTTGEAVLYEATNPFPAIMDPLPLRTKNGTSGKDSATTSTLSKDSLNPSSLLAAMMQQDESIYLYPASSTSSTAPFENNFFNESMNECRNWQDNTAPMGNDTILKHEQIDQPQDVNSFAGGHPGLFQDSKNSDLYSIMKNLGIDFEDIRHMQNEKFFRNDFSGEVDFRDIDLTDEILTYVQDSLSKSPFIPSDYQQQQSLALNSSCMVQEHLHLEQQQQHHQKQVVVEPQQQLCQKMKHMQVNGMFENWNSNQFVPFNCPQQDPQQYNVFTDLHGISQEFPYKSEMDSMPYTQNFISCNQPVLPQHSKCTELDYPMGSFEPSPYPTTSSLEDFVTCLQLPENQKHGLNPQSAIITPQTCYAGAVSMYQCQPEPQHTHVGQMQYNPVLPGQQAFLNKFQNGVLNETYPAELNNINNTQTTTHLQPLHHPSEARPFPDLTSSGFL
The experiment in a line: In Vitro Assay 1: XRE-luciferase reporter assay, antagonism in human cell line (HepG2). Conditions: Assay 1: AhR-Luc Human Antagonism (IC50, nM), unmarked values: kynurenine 200 μM, 6 hours.
For `Oc1cc(Cl)ccc1-c1cc(N2CC[C@H](O)C2)nc(-c2cccnc2)n1` [Example 316, (S)-1-(6-(4-chloro-2-hydroxyphenyl)-2-(pyridin-3-yl)pyrimidin-4-yl)pyrrolidin-3-ol], the IC50 (usually the concentration at which inhibition is half-maximal) was under 10 nM.

The compound `Oc1ncccc1-c1cc(N2CC[C@H](O)C2)nc(-c2cccnc2)n1` [Example 317, (S)-3-(6-(3-hydroxypyrrolidin-1-yl)-2-(pyridin-3-yl)pyrimidin-4-yl)pyridin-2-ol] yielded an IC50 of over 1000 nM.

With `OCC1CCN(c2cc(-c3ccc(F)nc3)nc(-c3cccnc3)n2)CC1` [Example 318, (1-(6-(6-fluoropyridin-3-yl)-2-(pyridin-3-yl)pyrimidin-4-yl)piperidin-4-yl)methanol], the IC50 fell in the range of 10 to 100 nM.

With `OC1CN(c2cc(-c3ccc(Cl)cc3)nc(-c3cccnc3)n2)C1` [Example 319, 1-(6-(4-chlorophenyl)-2-(pyridin-3-yl)pyrimidin-4-yl)azetidin-3-ol], the IC50 was 10 to 100 nM.

In turn, `OCC1CN(c2cc(-c3ccc(Cl)cc3)nc(-c3cccnc3)n2)C1` [Example 320, (1-(6-(4-chlorophenyl)-2-(pyridin-3-yl)pyrimidin-4-yl)azetidin-3-yl)methanol] gave an IC50 of 10 to 100 nM.

`Cn1cc(-c2nc(-c3ccc(Cl)cc3)cc(N3CCN(S(C)(=O)=O)CC3)n2)cn1` [Example 321, 4-(4-chlorophenyl)-2-(1-methyl-1H-pyrazol-4-yl)-6-(4-(methylsulfonyl)piperazin-1-yl)pyrimidine] yielded an IC50 of 100 to 1000 nM.

In turn, `Oc1cccc(-c2nc(-c3ccc(Cl)cc3)cc(N3CC[C@H](O)C3)n2)c1` [Example 322, (S)-1-(6-(4-chlorophenyl)-2-(3-hydroxyphenyl)pyrimidin-4-yl)pyrrolidin-3-ol] registered an IC50 of over 1000 nM.

Compound `O[C@H]1CCN(c2cc(-c3ccc(Cl)cc3)nc(-c3ccncc3)n2)C1` [Example 324, (S)-1-(6-(4-chlorophenyl)-2-(pyridin-4-yl)pyrimidin-4-yl)pyrrolidin-3-ol] came in with an IC50 of over 1000 nM.

In the case of `CS(=O)(=O)N1CCN(c2cc(-c3ccc(Cl)cc3)nc(-c3cncc(F)c3)n2)CC1` [Example 325, 4-(4-chlorophenyl)-2-(5-fluoropyridin-3-yl)-6-(4-(methylsulfonyl)piperazin-1-yl)pyrimidine], the IC50 fell in the range of 10 to 100 nM.

In the case of `CS(=O)(=O)C1CCN(c2cc(-c3ccc(Cl)cc3)nc(-c3cccnc3)n2)CC1` [Example 326, 4-(4-chlorophenyl)-6-(4-(methylsulfonyl)piperidin-1-yl)-2-(pyridin-3-yl)pyrimidine], the IC50 is 10 to 100 nM.

`O=S(=O)(C1CC1)N1CCN(c2cc(-c3ccc(Cl)cc3)nc(-c3cccnc3)n2)CC1` [Example 328, 4-(4-chlorophenyl)-6-(4-(cyclopropylsulfonyl)piperazin-1-yl)-2-(pyridin-3-yl)pyrimidine]: the IC50 is 10 to 100 nM.

`O[C@H]1CCN(c2cc(-c3ccc(Cl)cc3)nc(-c3ccnnc3)n2)C1` [Example 329, (S)-1-(6-(4-chlorophenyl)-2-(pyridazin-4-yl)pyrimidin-4-yl)pyrrolidin-3-ol] yielded an IC50 of 100 to 1000 nM.

Compound `OC1CCCN(c2cc(-c3ccc(Cl)cc3)nc(-c3cccnc3)n2)CC1` (stereo not drawn) [Example 330, 1-(6-(4-chlorophenyl)-2-(pyridin-3-yl)pyrimidin-4-yl)azepan-4-ol] showed an IC50 of 10 to 100 nM.

`CS(=O)(=O)N1CC2CC1CN2c1cc(-c2ccc(Cl)cc2)nc(-c2cccnc2)n1` (stereo not drawn) [Example 331, 2-(6-(4-chlorophenyl)-2-(pyridin-3-yl)pyrimidin-4-yl)-5-(methylsulfonyl)-2,5-diazabicyclo[2.2.1]heptane]: the IC50 is under 10 nM.

`Cn1nnc(-c2nc(-c3ccc(Cl)cc3)cc(N3CC[C@H](O)C3)n2)n1` [Example 332, (S)-1-(6-(4-chlorophenyl)-2-(2-methyl-2H-tetrazol-5-yl)pyrimidin-4-yl)pyrrolidin-3-ol] had an IC50 of over 1000 nM.

In turn, `Cn1nnc(-c2nc(-c3ccc(C(F)(F)F)cc3)cc(N3CC[C@H](O)C3)n2)n1` [Example 333, (S)-1-(2-(2-methyl-2H-tetrazol-5-yl)-6-(4-(trifluoromethyl)phenyl)pyrimidin-4-yl)pyrrolidin-3-ol] had an IC50 of over 1000 nM.

Consider `Cn1nnc(-c2nc(-c3ccc(Cl)cc3)cc(N3CCN(S(C)(=O)=O)CC3)n2)n1` [Example 334, 4-(4-chlorophenyl)-2-(2-methyl-2H-tetrazol-5-yl)-6-(4-(methylsulfonyl)piperazin-1-yl)pyrimidine], for which the IC50 is over 1000 nM.

Regarding `O=S(=O)(CCF)N1CCN(c2cc(-c3ccc(Cl)cc3)nc(-c3cccnc3)n2)CC1` [Example 335, 4-(4-chlorophenyl)-6-(4-((2-fluoroethyl)sulfonyl)piperazin-1-yl)-2-(pyridin-3-yl)pyrimidine], the IC50 was under 10 nM.

`O[C@H]1CCN(c2cc(-c3ccc(Cl)cc3)nc(-c3cnoc3)n2)C1` [Example 336, (S)-1-(6-(4-chlorophenyl)-2-(isoxazol-4-yl)pyrimidin-4-yl)pyrrolidin-3-ol]: the IC50 was in the range of 100 to 1000 nM.

Turning to `CS(=O)(=O)C1(CO)CCN(c2cc(-c3ccc(Cl)cc3)nc(-c3cccnc3)n2)CC1` [Example 337, (1-(6-(4-chlorophenyl)-2-(pyridin-3-yl)pyrimidin-4-yl)-4-(methylsulfonyl)piperidin-4-yl)methanol], the IC50 is under 10 nM.

Consider `OC1CCCCN(c2cc(-c3ccc(Cl)cc3)nc(-c3cccnc3)n2)C1` (stereo not drawn) [Example 338, 1-(6-(4-chlorophenyl)-2-(pyridin-3-yl)pyrimidin-4-yl)azepan-3-ol], for which the IC50 is 100 to 1000 nM.

Compound `O[C@H]1CCN(c2cc(-c3ccc(C(F)(F)F)cc3)nc(-c3cccnc3)n2)C1` [Example 340, (S)-1-(2-(pyridin-3-yl)-6-(4-(trifluoromethyl)phenyl)pyrimidin-4-yl)pyrrolidin-3-ol] yielded an IC50 of under 10 nM.

On to `CS(=O)(=O)N1CCN(c2cc(-c3ccc(C(F)(F)F)cc3)nc(-c3cccnc3)n2)CC1` [Example 341, 4-(4-(methylsulfonyl)piperazin-1-yl)-2-(pyridin-3-yl)-6-(4-(trifluoromethyl)phenyl)pyrimidine], for which the IC50 is over 1000 nM.

On to `O[C@H]1CCN(c2cc(-c3ccc(Cl)cc3)nc(-c3cnc(F)c(F)c3)n2)C1` [Example 342, (S)-1-(6-(4-chlorophenyl)-2-(5,6-difluoropyridin-3-yl)pyrimidin-4-yl)pyrrolidin-3-ol], for which the IC50 was over 1000 nM.

`O[C@@H]1CN(c2cc(-c3ccc(C(F)(F)F)cc3)nc(-c3cccnc3)n2)C[C@@H]1O` [Example 343, (3S,4R)-1-(2-(pyridin-3-yl)-6-(4-(trifluoromethyl)phenyl)pyrimidin-4-yl)pyrrolidine-3,4-diol]: the IC50 is over 1000 nM.

The compound `O[C@H]1CCN(c2cc(-c3ccc(Cl)cc3)nc(-c3cncnc3)n2)C1` [Example 344, (S)-1-(6-(4-chlorophenyl)-[2,5′-bipyrimidin]-4-yl)pyrrolidin-3-ol] registered an IC50 of under 10 nM.

Turning to `O[C@H]1CCN(c2cc(-c3ccc(Cl)cc3)nc(-c3ccc(F)nc3)n2)C1` [Example 345, (S)-1-(6-(4-chlorophenyl)-2-(6-fluoropyridin-3-yl)pyrimidin-4-yl)pyrrolidin-3-ol], the 50% inhibitory concentration (IC50) lay in the range of 100 to 1000 nM.

For `O[C@H]1CCN(c2cc(-c3ccc(Cl)cc3)nc(-c3cccnc3F)n2)C1` [Example 346, (S)-1-(6-(4-chlorophenyl)-2-(2-fluoropyridin-3-yl)pyrimidin-4-yl)pyrrolidin-3-ol], the IC50 fell in the range of 10 to 100 nM.

Compound `O[C@H]1CCN(c2cc(-c3ccc(Cl)cc3)nc(-c3ccccn3)n2)C1` [Example 347, (S)-1-(6-(4-chlorophenyl)-2-(pyridin-2-yl)pyrimidin-4-yl)pyrrolidin-3-ol] gave an IC50 of over 1000 nM.

In turn, `Cn1cc(-c2nc(-c3ccc(Cl)cc3)cc(N3CCN(S(=O)(=O)CCO)CC3)n2)cn1` [Example 348, 2-((4-(6-(4-chlorophenyl)-2-(1-methyl-1H-pyrazol-4-yl)pyrimidin-4-yl)piperazin-1-yl)sulfonyl)ethanol] registered an IC50 of 10 to 100 nM.

Consider `O[C@H]1CCN(c2cc(-c3ccc(C(F)(F)F)cc3)nc(-c3cnsc3)n2)C1` [Example 350, (S)-1-(2-(isothiazol-4-yl)-6-(4-(trifluoromethyl)phenyl)pyrimidin-4-yl)pyrrolidin-3-ol], for which the IC50 was under 10 nM.

For the compound `CS(=O)(=O)C1(CO)CCN(c2cc(-c3ccc(C(F)(F)F)cc3)nc(-c3cccnc3)n2)CC1` [Example 351, (4-(methylsulfonyl)-1-(2-(pyridin-3-yl)-6-(4-(trifluoromethyl)phenyl)pyrimidin-4-yl)piperidin-4-yl)methanol], the IC50 was over 1000 nM.

For the compound `Cn1cc(-c2nc(-c3ccc(C(F)(F)F)cc3)cc(N3CCN(S(=O)(=O)CCO)CC3)n2)cn1` [Example 353, 2-((4-(2-(1-methyl-1H-pyrazol-4-yl)-6-(4-(trifluoromethyl)phenyl)pyrimidin-4-yl)piperazin-1-yl)sulfonyl)ethanol], the IC50 was 10 to 100 nM.
